Test results published in article PMC7699649 (Communications Biology, 2020).
Non-standard residues stand in square brackets, D forms with d. Residues, ends and D or L forms follow the SMILES beside them.

Legend:
[1] = test system: EMR Staphylococcus aureus-15 NCTC 13616; details: RPMI supplemented with 5% FBS (value in parentheses); twofold broth microdilution, 20 h 37 C, OD600; modal MIC, at least three biological replicates
Experimental: The antibacterial activity of the peptides was assessed through a modified twofold broth microdilution assay with modal MICs generated from at least three biological replicate experiments[20],[25]. The method broadly followed EUCAST methodology, with non-cation-adjusted Mueller Hinton or RPMI replacing cation-adjusted Mueller Hinton. Peptides and antibiotics were diluted in a twofold dilution in media down a 96 well plate. Bacteria were then added, back-diluted from an overnight culture, at a starting concentration of 5 × 10^5 CFU/ml. Plates were incubated, static at 37 C, for 20 h and the OD600 was determined using a Clariostar plate reader (BMG Labtech). […] Synergy was measured using standard microdilution checkerboard assays under the same conditions as the MICs[54]. Twofold dilution series of each peptide or antibiotic were prepared in separate 96 well plates and then combined into one before addition of bacteria. The growth/no growth interface was determined using the same definition as the MIC. The fractional inhibitory concentration was calculated from the most synergistic well on the plate for three independent repeats, and presented as the average +/− standard deviation. FIC is calculated as (MIC of compound A in combination with B/MIC of compound A alone) + (MIC of compound B in combination with A/MIC of compound B alone). MICs were determined on the same plates as the FICs to increase reproducibility.

HEK293 = assay type: cell-based, human; details: XTT, 24 h with peptide, OD475; Eagle's Minimum Essential Media, 10% FBS; average and standard error of three biological replicates
Experimental: (§1) HeLa and HEK293 cell lines were purchased from ECACC and cultured in Eagle’s Minimum Essential Media containing glutamine, supplemented with 10% FBS and 1X non-essential amino acids. A549 and Calu-3 cell lines were purchased from ATCC. […] Cytotoxicity was measured by incubating starter cultures of cells for 24 h in a 96 well plate, gently removing the supernatant and replacing it with dilutions of peptides and controls, incubating for a further 24 h and then staining of the cells with the second-generation tetrazolium dye, XTT.

A549 = assay type: cell-based; details: XTT, 24 h with peptide, OD475; DMEM, 10% FBS; average and standard error of three biological replicates
Experimental: as §1

Calu-3 = assay type: cell-based; details: XTT, 24 h with peptide, OD475; DMEM/F-12, 10% FBS; average and standard error of three biological replicates
Experimental: as §1

HeLa = assay type: cell-based; details: XTT, 24 h with peptide, OD475; Eagle's Minimum Essential Media, 10% FBS; average and standard error of three biological replicates
Experimental: as §1

EMRSA-15 = experiment: Murine EMRSA-15 lung infection model: lung CFU; assay type: in vivo, C57Bl6J mice
Source text: CFUs were quantified in lung homogenates.

[2] = Murine EMRSA-15 lung infection model: body weight; assay type: in vivo, C57Bl6J mice
BAL cells = experiment: Murine EMRSA-15 lung infection model: BAL total and differential cell count; assay type: in vivo, C57Bl6J mice; details: 48 h
Experimental: Using the recently developed method[65], an overnight culture of EMRSA-15 was prepared in tryptic soy broth (TSB). EMRSA-15 was cultured in TSB overnight at 37 °C, adjusted to a starting OD600 of 0.025, and grown for additional 4 h for agar beads preparation. EMRSA-15 was embedded into agar beads by mixing the overnight culture with molten tryptic soy agar, which was then spun into warmed mineral oil. The preparation was cooled and centrifuged at 2700 × g, the remaining oil was eliminated, and the beads were washed in sterile PBS. The CFU content of the beads slurry was subsequently quantified on TSA plates and the beads slurry then diluted to 2 × 10^7 CFU/ml in sterile PBS to deliver a final dose of 1 × 10^6 CFU/mouse. Animal work was performed in accordance with the Animals (Scientific Procedures) Act of 1986 (United Kingdom) and 2012 revisions with local ethical approval of King’s College London. On day 0, male C57Bl6J mice (8–10 weeks, Charles River) were anaesthetised under Isoflurane and 50 µl inoculum of EMRSA-15 embedded in agar beads (10^6 CFU/mouse) was instilled directly into the respiratory tract via oropharyngeal dosing (o.a.). Sham control mice were inoculated with sterile PBS agar beads. […] Body weight was measured daily, and animals monitored at regular intervals for signs of pain and distress. After 48 h of pulmonary infection, animals were terminally euthanized using 25% urethane via intra-peritoneal injection. CFUs were quantified in lung homogenates. Lung homogenates were then centrifuged at 14000 rpm for 30 min at 4 °C and the supernatants were stored at −80 °C for future analysis. For BAL fluid collection and analysis (total and differential cell count), a 22-gauge catheter was inserted into the trachea and BAL was recovered by instillation of 0.5 ml of sterile PBS three times and total cells counts were performed by adding Turks stain in a 1:1 ratio. BAL fluid was then centrifuged, and supernatants were stored at −20 °C. Total levels of TNFα, IL-6, KC and MCP-1 were quantified from BAL fluid collected from all animals and measured by ELISA according to the manufacturer protocol (R&D Systems UK). Concentrations of all mediators were then normalised to total protein content of BAL fluid quantified via bicinchoninic acid total protein assays performed to manufacturers protocols (Thermofisher Scientific). […] Statistical analysis was by one-way ANOVA with Dunnett’s multiple comparisons test.

TNFα = experiment: Murine EMRSA-15 lung infection model: BAL cytokine ELISA; assay type: in vivo, C57Bl6J mice; details: vancomycin or D-pleurocidin-KR i.v., 48 h
IL-6 = experiment: as above; assay type: in vivo, C57Bl6J mice; details: 600 mg/kg vancomycin or D-pleurocidin-KR (also lowest dose 0.15 mg/kg) i.v., 48 h
MCP-1 = experiment: as above; assay type: in vivo, C57Bl6J mice; details: vancomycin or D-pleurocidin-KR i.v., 48 h
[3] = Maximum tolerated dose (MTD) study, i.v.; assay type: in vivo; details: ICR mice
Source text: SI Figures: Why are there 6 different Figure 3s with separate legends? Within the 4th - 6th Figure 3’s, what are the 4 different graphs for each of A, B, and C? […] Figure 16, 19 and 24 […]
have unreadable components due to overlap of text.
Each panel that constitutes “Secondary structure analysis of pleurocidin peptides from MD simulations” and, as such, is the same data but analysed in different ways. For this reason, we considered it appropriate to consider these all as one figure. However, to provide further clarity we have renumbered the supplementary figures and added further detail to the legends. The DISICL analysis is presented with a separate panel for each peptide. This has been clarified in the figure legend.
The overlap in the metabolite annotation in Volcano plots is a challenge for those metabolites that do not change much or where there is low significance as they all cluster in the same place. Since they are below the significance threshold, we have elected to remove these labels. […]
unethical to perform dose-ranging experiments to confirm this. Instead our experimental design was […]
As mentioned above however, we […]
systemic delivery of AMPs will never be possible due to insufficient therapeutic index. There is a marginal therapeutic index provided based on mammalian cell toxicity (up to 12-fold), but many existing in vitro studies of AMPs have shown greater selectivity. […]

## CC(C)C[C@@H](NC(=O)[C@@H](Cc1ccc(O)cc1)NC(=O)[C@@H](Cc1c[nH]cn1)NC(=O)[C@H](NC(=O)[C@@H](CC(C)C)NC(=O)[C@@H](C)NC(=O)[C@@H](C)NC(=O)[C@@H](CCCNC(=N)N)NC(=O)CNC(=O)[C@H](NC(=O)[C@@H](Cc1c[nH]cn1)NC(=O)[C@@H](CCCNC(=N)N)NC(=O)CNC(=O)[C@H](NC(=O)[C@@H](Cc1c[nH]cn1)NC(=O)[C@@H](C)NC(=O)[C@@H](C)NC(=O)[C@@H](CCCNC(=N)N)NC(=O)[C@@H](CCCNC(=N)N)NC(=O)[C@@H](Cc1ccccc1)NC(=O)[C@@H](Cc1ccccc1)NC(=O)[C@@H](CO)NC(=O)CNC(=O)[C@@H](Cc1c[nH]c2ccccc12)NC(=O)CN)C(C)C)C(C)C)[C@H](C)O)C(N)=O [D-pleurocidin-KR] (H-G[dW]G[dS][dF][dF][dR][dR][dA][dA][dH][dV]G[dR][dH][dV]G[dR][dA][dA][dL][dT][dH][dY][dL]-NH2; N-terminus assumed)
[1]
  MIC, peptide concentration: 0.5 µg/mL
HEK293
  Toxicity HEK293 (EC50 / IC50): (36.4 ± 4.3) µg/ml
A549
  Toxicity A549 (EC50 / IC50): (56.5 ± 4.5) µg/ml
Calu-3
  Toxicity Calu-3 (EC50 / IC50): (39.1 ± 1.8) µg/ml
HeLa
  Toxicity HeLa (EC50 / IC50): (25.3 ± 2.2) µg/ml
EMRSA-15; cumulative 1.5 mg/kg/48 h i.v. (three doses at 4, 24, 30 h post infection)
  reduction in lung CFU: 0.9 log10
EMRSA-15; cumulative 15 mg/kg/48 h i.v. (three doses at 4, 24, 30 h post infection)
  reduction in lung CFU: 1.1 log10
EMRSA-15; lowest dose, cumulative 0.15 mg/kg i.v., 48 h
  reduction in lung CFU: did not cause a significant reduction
[2]; cumulative 15 or 1.5 mg/kg/48 h D-pleurocidin-KR, 600 mg/kg vancomycin, i.v.
  weight loss over the 48-h infection period: mitigates this weight loss
[2]; lowest dose of 0.15 mg/kg D-pleurocidin-KR i.v.
  weight loss over the 48-h infection period: no observable effect
BAL cells; 600 mg/kg vancomycin or D-pleurocidin-KR (also lowest dose 0.15 mg/kg) i.v.
  neutrophil recruitment (BAL): reduced
BAL cells; vancomycin or D-pleurocidin-KR i.v.
  macrophage numbers in BAL: No effects
TNFα
  levels of TNFα in BAL: No effects
IL-6
  IL-6 in BAL: reduced
MCP-1
  levels of MCP-1 in BAL: No effects
[3]
  dose tolerated when administered i.v.: 15 mg/kg/24 h
